In patent US20240252488A1 (KOREA RESEARCH INSTITUTE OF CHEMICAL TECHNOLOGY, priority 2020, published 2024):

Assays:
[1] = test system: FADD−/− Jurkat cells; test: Necroptosis inhibition assay, TNF-α-induced necroptosis (CellTiter-Glo 2.0); assay type: cell-based, human; conditions: TNF-α 15 ng/mL; for Necroptosis inhibition assay (Rescue %) 1 μM: compound 1 μM; for Necroptosis inhibition assay (Rescue %) 10 μM: compound 10 μM
In short: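 Cells at 5.0×10^5 cells/mL were pretreated with compound (final 0.1, 1 and 10 μM) for 30 minutes at room temperature, then given TNF-α at 15 ng/mL final. After 20 to 24 hours at 37° C, 5% CO2, viability was read as ATP luminescence to calculate cytotoxicity and necroptosis inhibition rate.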

[2] = target: T1, MLKL (Homo sapiens, UniProt Q8NB16); test: MLKL degradation assay in HepG2 cell line (western blot); assay type: cell-based; parameters: endogenous in cells; host or cells: HepG2 or HaCaT; conditions: cell line not given; for Degradation assay (Degradation %) 1 μM: compound 1 μM; for Degradation assay (Degradation %) 10 μM: compound 10 μM
T1 sequence (Q8NB16 1-471): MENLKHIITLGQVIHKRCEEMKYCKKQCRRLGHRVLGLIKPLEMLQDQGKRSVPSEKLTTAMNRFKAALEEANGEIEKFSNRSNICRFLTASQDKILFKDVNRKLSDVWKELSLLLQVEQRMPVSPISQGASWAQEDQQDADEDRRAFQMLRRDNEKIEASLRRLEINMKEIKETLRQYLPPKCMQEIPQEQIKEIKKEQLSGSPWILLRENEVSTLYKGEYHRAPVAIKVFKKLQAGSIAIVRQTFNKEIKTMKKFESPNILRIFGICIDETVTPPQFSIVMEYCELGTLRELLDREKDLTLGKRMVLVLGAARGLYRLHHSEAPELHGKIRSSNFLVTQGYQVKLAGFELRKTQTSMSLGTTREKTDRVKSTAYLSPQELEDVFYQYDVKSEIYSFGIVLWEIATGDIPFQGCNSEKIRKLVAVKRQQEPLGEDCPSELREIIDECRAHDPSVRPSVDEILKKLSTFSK
In short: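 HepG2 cells were exposed to compound at a final 1 or 10 μM for 20-24 hours at 37 °C, 5% CO2. RIPA lysates were normalized by BCA assay, 10-15 μg protein resolved by SDS-PAGE, and MLKL levels detected by western blot with chemiluminescence.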

[3] = target: T1, MLKL; test: Measurement of binding affinity with MLKL receptor (competitive binding assay, Kd); parameters: made in house; host or cells: HEK 293 cell line (T7 phage in E. coli BL21-derived host is also described)
In short: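 MLKL was produced in HEK 293 cells and tagged with DNA for detection. Liganded beads were blocked with excess biotin and washed to cut non-specific binding, then compounds (111× DMSO stocks, 0.9% DMSO in assay) competed for binding. Eluate kinase was measured by qPCR for Kd.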

SMILES	Degradation assay (Degradation %) 1 μM [2]	Degradation assay (Degradation %) 10 μM [2]	Kd [3]	Necroptosis inhibition assay (Rescue %) 1 μM [1]	Necroptosis inhibition assay (Rescue %) 10 μM [1]	Necroptosis inhibition assay (Rescue %) 1 μM ([1]; FADD−/− Jurkat cells)	Necroptosis inhibition assay (Rescue %) 10 μM ([1]; FADD−/− Jurkat cells)	Necroptosis inhibition assay (Rescue %) 1.1 μM ([1]; compound 1.1 µM)
Nc1ncc(-c2cnn([C@H]3CCN(CCOCCOCCNC(=O)CNc4ccc5c(c4)C(=O)N(C4CCC(=O)NC4=O)C5=O)C3)c2)nc1C(=O)OC(C(=O)Nc1ccc(F)cc1)c1ccccc1 (stereo partly drawn) [TDH-264, 2-((4-fluorophenyl)amino)-2-oxo-1-phenylethyl 3-amino-6-(1-((3S)-1-(2-(2-(2-(2-((2-(2,6-dioxopiperidin-3-yl)-1,3-dioxoisoindolin-5-yl)amino)acetamido)ethoxy)ethoxy)ethyl)pyrrolidin-3-yl)-1H-pyrazol-4-yl)pyrazine-2-carboxylate]	65.05%	53.98%	3.4 nM	23.38%	40.72%	–	–	–
Nc1ncc(-c2cnn(C3CCN(C(=O)CCC4CCN(C(=O)C5CCN(c6ccc7c(c6)C(=O)N(C6CCC(=O)NC6=O)C7=O)CC5)CC4)CC3)c2)nc1C(=O)O[C@@H](C(=O)Nc1ccc(F)cc1)c1ccccc1 (stereo partly drawn) [TDH-418, (R)-2-((4-fluorophenyl)amino)-2-oxo-1-phenylethyl 3-amino-6-(1-(1-(3-(1-(1-(2-(2,6-dioxopiperidin-3-yl)-1,3-dioxoisoindolin-5-yl)piperidine-4-carbonyl)piperidin-4-yl)propanoyl)piperidin-4-yl)-1H-pyrazol-4-yl)pyrazine-2-carboxylate]	79.05%	58.33%	4 nM	–	–	28.11%	17.31%	–
Nc1ncc(-c2cnn(C3CCN(CC4CCN(CC(=O)NCCNc5cccc6c5C(=O)N(C5CCC(=O)NC5=O)C6=O)CC4)CC3)c2)nc1C(=O)OC(C(=O)Nc1ccc(F)cc1)c1ccccc1 (centres unmarked) [TDH-234, 2-((4-fluorophenyl)amino)-2-oxo-1-phenylethyl 3-amino-6-(1-(1-((1-(2-((2-((2-(2,6-dioxopiperidin-3-yl)-1,3-dioxoisoindolin-4-yl)amino)ethyl)amino)-2-oxoethyl)piperidin-4-yl)methyl)piperidin-4-yl)-1H-pyrazol-4-yl)pyrazine-2-carboxylate]	64.08%	54.89%	1.6 nM	35.55%	26.56%	–	–	–
Nc1ncc(-c2cnn(C3CCN(CCOCCNc4ccc5c(c4)C(=O)N(C4CCC(=O)NC4=O)C5=O)CC3)c2)nc1C(=O)O[C@@H](C(=O)Nc1ccc(F)cc1)c1ccccc1 (stereo partly drawn) [TDH-131, (R)-2-((4-fluorophenyl)amino)-2-oxo-1-phenylethyl 3-amino-6-(1-(1-(2-(2-((2-(2,6-dioxopiperidin-3-yl)-1,3-dioxoisoindolin-5-yl)amino)ethoxy)ethyl)piperidin-4-yl)-1H-pyrazol-4-yl)pyrazine-2-carboxylate]	51.13%	47.86%	3.9 nM	24.56%	0.96%	–	–	–
Nc1ncc(-c2cnn(C3CCN(CCOCCOCCNC(=O)C4CN(c5cccc6c5C(=O)N(C5CCC(=O)NC5=O)C6=O)C4)CC3)c2)nc1C(=O)O[C@@H](C(=O)Nc1ccc(F)cc1)c1ccccc1 (stereo partly drawn) [TDH-115, (R)-2-((4-fluorophenyl)amino)-2-oxo-1-phenylethyl 3-amino-6-(1-(1-(2-(2-(2-(1-(2-(2,6-dioxopiperidin-3-yl)-1,3-dioxoisoindolin-4-yl)azetidine-3-carboxamido)ethoxy)ethoxy)ethyl)piperidin-4-yl)-1H-pyrazol-4-yl)pyrazine-2-carboxylate]	10.31%	24.21%	6.3 nM	12.42%	3.59%	–	–	–
Nc1ncc(-c2cnn(C3CCN(CC4CCN(C(=O)C5CCN(c6ccc7nnn(C8CCC(=O)NC8=O)c(=O)c7c6)CC5)CC4)CC3)c2)nc1C(=O)O[C@@H](C(=O)Nc1ccc(F)cc1)c1ccccc1 (stereo partly drawn) [TDH-151, (R)-2-((4-fluorophenyl)amino)-2-oxo-1-phenylethyl 3-amino-6-(1-(1-((1-(1-(3-(2,6-dioxopiperidin-3-yl)-4-oxo-3,4-dihydrobenzo[d][1,2,3]triazin-6-yl)piperidine-4-carbonyl)piperidin-4-yl)methyl)piperidin-4-yl)-1H-pyrazol-4-yl)pyrazine-2-carboxylate]	84.58%	77.74%	12 nM	85.85%	60.12%	–	–	–

The next compounds have a lower Kd [3] than those just listed; values first:

Degradation assay (Degradation %) 1 μM [2]	Degradation assay (Degradation %) 10 μM [2]	Kd [3]	SMILES	Necroptosis inhibition assay (Rescue %) 1 μM [1]	Necroptosis inhibition assay (Rescue %) 10 μM [1]	Necroptosis inhibition assay (Rescue %) 1 μM ([1]; FADD−/− Jurkat cells)	Necroptosis inhibition assay (Rescue %) 10 μM ([1]; FADD−/− Jurkat cells)	Necroptosis inhibition assay (Rescue %) 1.1 μM ([1]; compound 1.1 µM)
81.77%	60.49%	0.34 nM	Nc1ncc(-c2cnn(C3CCN(CCC4CCN(C(=O)CCc5ccc6c(c5)CN(C5CCC(=O)NC5=O)C6=O)CC4)CC3)c2)nc1C(=O)O[C@@H](C(=O)Nc1ccc(F)cc1)c1ccccc1 (stereo partly drawn) [TDH-475, (R)-2-((4-fluorophenyl)amino)-2-oxo-1-phenylethyl 3-amino-6-(1-(1-(2-(1-(3-(2-(2,6-dioxopiperidin-3-yl)-1-oxoisoindolin-5-yl)propanoyl)piperidin-4-yl)ethyl)piperidin-4-yl)-1H-pyrazol-4-yl)pyrazine-2-carboxylate]	–	–	31.75%	7.21%	–
91.76%	85.83%	0.28 nM	Nc1ncc(-c2cnn(C3CCN(CCCN4CCN(C(=O)COc5ccc6nnn(C7CCC(=O)NC7=O)c(=O)c6c5)CC4)CC3)c2)nc1C(=O)O[C@@H](C(=O)Nc1ccc(F)cc1)c1ccccc1 (stereo partly drawn) [TDH-370, (R)-2-((4-fluorophenyl)amino)-2-oxo-1-phenylethyl 3-amino-6-(1-(1-(3-(4-(2-((3-(2,6-dioxopiperidin-3-yl)-4-oxo-3,4-dihydrobenzo[d][1,2,3]triazin-6-yl)oxy)acetyl)piperazin-1-yl)propyl)piperidin-4-yl)-1H-pyrazol-4-yl)pyrazine-2-carboxylate]	52.00%	24.38%	–	–	–
84.79%	76.36%	0.55 nM	Nc1ncc(-c2cnn(C3CCN(CCCN4CCN(C(=O)CNc5ccc6c(c5)C(=O)N(C5CCC(=O)NC5=O)C6=O)CC4)CC3)c2)nc1C(=O)O[C@@H](C(=O)Nc1ccc(F)cc1)c1ccccc1 (stereo partly drawn) [TDH-357, (R)-2-((4-fluorophenyl)amino)-2-oxo-1-phenylethyl 3-amino-6-(1-(1-(3-(4-((2-(2,6-dioxopiperidin-3-yl)-1,3-dioxoisoindolin-5-yl)glycyl)piperazin-1-yl)propyl)piperidin-4-yl)-1H-pyrazol-4-yl)pyrazine-2-carboxylate]	–	–	–	–	82.13 (1.1µM) %
89.05%	85.68%	0.19 nM	Nc1ncc(-c2cnn(C3CCN(C4CC5(CCN(CC6CCN(C(=O)c7ccc8c(c7)CN(C7CCC(=O)NC7=O)C8=O)CC6)CC5)C4)CC3)c2)nc1C(=O)O[C@@H](C(=O)Nc1ccc(F)cc1)c1ccccc1 (stereo partly drawn) [TDH-548, (R)-2-((4-fluorophenyl)amino)-2-oxo-1-phenylethyl 3-amino-6-(1-(1-(7-((1-(2-(2,6-dioxopiperidin-3-yl)-1-oxoisoindoline-5-carbonyl)piperidin-4-yl)methyl)-7-azaspiro[3.5]nonan-2-yl)piperidin-4-yl)-1H-pyrazol-4-yl)pyrazine-2-carboxylate]	–	–	64.86%	31.41%	–
50.12%	88.68%	0.34 nM	Nc1ncc(-c2cnn(C3CCN(CC4CCN(CC5CCN(C(=O)COc6ccc7c(c6)C(=O)N(C6CCC(=O)NC6=O)C7=O)CC5)CC4)CC3)c2)nc1C(=O)O[C@@H](C(=O)Nc1ccc(F)cc1)c1ccccc1 (stereo partly drawn) [TDH-425, (R)-2-((4-fluorophenyl)amino)-2-oxo-1-phenylethyl 3-amino-6-(1-(1-((1-((1-(2-((2-(2,6-dioxopiperidin-3-yl)-1,3-dioxoisoindolin-5-yl)oxy)acetyl)piperidin-4-yl)methyl)piperidin-4-yl)methyl)piperidin-4-yl)-1H-pyrazol-4-yl)pyrazine-2-carboxylate]	–	–	67.90%	–	–
